Experimental data as given in ChEMBL document CHEMBL1201862, “PubChem BioAssay data set” (2004).
“And” between values parts separate entries of the source, which are not always exact repeats. Equal entries are not always repeated.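 A five-concentration, 48-hour dose response in 96-well plates underlies each endpoint, interpolated linearly between surrounding concentrations. Abbreviation: GI50, concentration required for 50% inhibition of growth.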 The source made the active and inactive calls. Cut-off read from the data, not from the text of the source: active = GI50 up to about 1.1 µM and inactive = higher.

Tests used:
Assay in all cases: growth of human tumour cells (NCI), 48 h
SW-620 = tested on: SW-620
MOLT-4 = tested on: MOLT-4
Malme-3M = tested on: Malme-3M
SN12C = tested on: SN12C
SR = tested on: SR
HOP-92 = tested on: HOP-92
UACC-257 = tested on: UACC-257
SF-268 = tested on: SF-268
HT-29 = tested on: HT-29
T47D = tested on: T47D
SNB-75 = tested on: SNB-75
LOX IMVI = tested on: LOX IMVI
PC-3 = tested on: PC-3
DU-145 = tested on: DU-145
NCI-H226 = tested on: NCI-H226
SNB-19 = tested on: SNB-19
NCI-H522 = tested on: NCI-H522
A549 = tested on: A549
NCI-H460 = tested on: NCI-H460
A498 = tested on: A498

Measured: GI50

CCOC(=O)C(NC(=O)CC)(Nc1ccc(S(=O)(=O)Nc2ncccn2)cc1)C(F)(F)F (centres undefined)
inactive: SW-620 > 100 µM | MOLT-4 > 100 µM | Malme-3M > 100 µM | SN12C > 100 µM | SR > 100 µM | HOP-92 > 100 µM | UACC-257 > 100 µM | SF-268 > 100 µM | HT-29 > 100 µM | T47D > 100 µM | SNB-75 > 100 µM | LOX IMVI > 100 µM | PC-3 > 100 µM | DU-145 > 100 µM | NCI-H226 > 100 µM | SNB-19 > 100 µM | NCI-H522 > 100 µM | A549 > 100 µM | NCI-H460 > 100 µM

C=CCC(SC)C1=C(C)C(=O)c2ccccc21 (centres undefined)
inactive: SW-620 > 10 µM | MOLT-4 > 10 µM | Malme-3M > 10 µM | SN12C > 10 µM | A498 > 10 µM | SR > 10 µM | HOP-92 > 10 µM | UACC-257 > 10 µM | SF-268 > 10 µM | HT-29 > 10 µM | T47D > 10 µM | LOX IMVI > 10 µM | PC-3 > 10 µM | DU-145 > 10 µM | NCI-H226 > 10 µM | SNB-19 > 10 µM | A549 > 10 µM | NCI-H460 > 10 µM

O=C(/C=C\c1ccccc1)Oc1ccc(/C=C2\CCC/C(=C\c3ccc(OC(=O)/C=C\c4ccccc4)cc3)C2=O)cc1
inactive: SW-620 > 100 µM | MOLT-4 > 100 µM | SN12C > 100 µM | SR > 100 µM | HOP-92 > 100 µM | UACC-257 > 100 µM | SF-268 > 100 µM | HT-29 > 100 µM | T47D > 100 µM | SNB-75 56.5 µM | LOX IMVI > 100 µM | PC-3 > 100 µM | DU-145 > 100 µM | SNB-19 > 100 µM | NCI-H522 > 100 µM | A549 > 100 µM | NCI-H460 > 100 µM

Cc1cc2c(c(/C=N/Cc3ccccc3)c1)OC1(C=C2)Oc2ccccc2C(=O)N1C (centres undefined)
inactive: SW-620 33.6 µM | MOLT-4 4.5 µM | SN12C 27.7 µM | A498 23.9 µM | SR 3.54 µM | HOP-92 17.5 µM | UACC-257 25.8 µM | SF-268 21.8 µM | HT-29 21.6 µM | T47D 10.4 µM | SNB-75 16.4 µM | LOX IMVI 17.4 µM | PC-3 24.7 µM | DU-145 25.4 µM | NCI-H226 16 µM | SNB-19 31.6 µM | A549 29.5 µM | NCI-H460 25.1 µM

COc1cc(C2SC(=N)Nc3c2c(C)nn3C(=O)Cc2ccccc2)ccc1O (centres undefined)
inactive: SW-620 > 100 µM | MOLT-4 > 100 µM | Malme-3M > 100 µM | SN12C > 100 µM | A498 > 100 µM | SR > 100 µM | UACC-257 > 100 µM | SF-268 > 100 µM | HT-29 > 100 µM | T47D > 100 µM | SNB-75 26.8 µM | LOX IMVI > 100 µM | PC-3 > 100 µM | DU-145 > 100 µM | NCI-H226 > 100 µM | SNB-19 > 100 µM | NCI-H522 > 100 µM | A549 > 100 µM | NCI-H460 > 100 µM

COc1nc(N)c(NC2OC(CO)C(O)C2O)c(=O)[nH]1 (centres undefined)
inactive: SW-620 > 100 µM | MOLT-4 > 100 µM | Malme-3M > 100 µM and 75.5 µM | SN12C > 100 µM | A498 > 100 µM | SR > 100 µM | HOP-92 > 100 µM | UACC-257 > 100 µM | SF-268 > 100 µM | HT-29 > 100 µM | T47D > 100 µM | SNB-75 > 100 µM | LOX IMVI > 100 µM | PC-3 > 100 µM | DU-145 > 100 µM | NCI-H226 > 100 µM | SNB-19 > 100 µM | A549 > 100 µM | NCI-H460 > 100 µM

c1ccc(/N=C(\N2CCCC2)N(CCN2CCCC2)c2ccccc2)cc1
inactive: SW-620 11.4 µM | MOLT-4 3.98 µM | Malme-3M > 100 µM | SN12C 29.8 µM | SR 13.2 µM | HOP-92 22.6 µM | UACC-257 21 µM | SF-268 > 10 µM | HT-29 1.84 µM | T47D 28.8 µM | SNB-75 14.4 µM | LOX IMVI 2.86 µM | PC-3 5.5 µM | DU-145 > 10 µM | NCI-H226 23.7 µM | SNB-19 > 100 µM | NCI-H522 11.3 µM | A549 56.6 µM | NCI-H460 10.3 µM

O=C(O)c1ccc(Nc2nc3ccc(C(F)(F)F)cc3nc2C(=O)O)cc1
inactive: SW-620 > 100 µM | MOLT-4 > 100 µM | Malme-3M > 100 µM | SN12C > 100 µM | SR > 100 µM | HOP-92 > 100 µM | UACC-257 > 100 µM | SF-268 > 100 µM | HT-29 > 100 µM | T47D > 100 µM | SNB-75 > 100 µM | LOX IMVI > 100 µM | PC-3 > 100 µM | DU-145 > 100 µM | NCI-H226 > 100 µM | SNB-19 > 100 µM | NCI-H522 > 100 µM | A549 > 100 µM | NCI-H460 > 100 µM

CC(=O)NN/C=N/C(C#N)=C(\N)C#N
inactive: SW-620 > 100 µM | MOLT-4 > 100 µM | Malme-3M > 100 µM | SN12C > 100 µM | A498 > 100 µM | SR > 100 µM | UACC-257 > 100 µM | SF-268 > 100 µM | HT-29 > 100 µM | T47D > 100 µM | SNB-75 > 100 µM | LOX IMVI > 100 µM | PC-3 > 100 µM | DU-145 > 100 µM | NCI-H226 > 100 µM | SNB-19 > 100 µM | NCI-H522 > 100 µM | A549 > 100 µM | NCI-H460 > 100 µM

Cc1cccc(C)c1NC(=O)/C=C/c1ccccc1
inactive: SW-620 > 100 µM | MOLT-4 > 100 µM | Malme-3M 51.2 µM | SN12C > 100 µM | A498 > 100 µM | SR > 100 µM | UACC-257 > 100 µM | SF-268 > 100 µM | HT-29 > 100 µM | T47D > 100 µM | SNB-75 31.2 µM | LOX IMVI > 100 µM | PC-3 > 100 µM | DU-145 > 100 µM | NCI-H226 20.3 µM | SNB-19 > 100 µM | NCI-H522 18.8 µM | A549 > 100 µM | NCI-H460 > 100 µM

COc1ccc2c3c1OC1c4[nH]c5ccccc5c4CC4(O)C(C2)N(C)CCC314 (centres undefined)
inactive: SW-620 39.1 µM | MOLT-4 16.7 µM | SN12C 56.6 µM | A498 15.3 µM | SR 15.2 µM | HOP-92 14.3 µM | UACC-257 17.3 µM | SF-268 36.6 µM | HT-29 22 µM | T47D 20.8 µM | SNB-75 29.3 µM | LOX IMVI 20.1 µM | PC-3 37.2 µM | DU-145 57.9 µM | SNB-19 32.4 µM | NCI-H522 25.1 µM | A549 59.2 µM | NCI-H460 22 µM
